In brackets after ≈: the same amount, converted by molar mass. Like-named read-outs stand apart in the source and are kept apart here.
Experiments:
[1] = tested on: MDR P. aeruginosa clinical isolates; assay: Resistance phenotype (MICs of antibiotics) of MDR clinical isolates; format: cell-based, Pseudomonas aeruginosa; conditions: Pseudomonas aeruginosa
[2] = tested on: MDR A. baumannii clinical isolates; assay: as above; format: cell-based, Acinetobacter baumannii; conditions: Acinetobacter baumannii
[3] = tested on: MDR K. pneumoniae clinical isolates; assay: as above; format: cell-based, Klebsiella pneumoniae; conditions: Klebsiella pneumoniae, read-out: MIC
[4] = tested on: MDR E. cloacae clinical isolates; assay: as above; format: cell-based, Enterobacter cloacae; conditions: Enterobacter cloacae, read-out: MIC
[5] = tested on: MDR E. coli clinical isolates; assay: as above; format: cell-based, Escherichia coli; conditions: Escherichia coli, read-out: MIC
[6] = tested on: wild-type E. coli ATCC 25922; assay: microbe, parasite or virus in culture; format: cell-based, Escherichia coli; conditions: ATCC 25922
Protocol: The adjuvant activities of dUSTBβPs were evaluated using checkerboard assay as previously described ([Berry et al., 2019]). Overnight-grown bacterial culture diluted in saline to 0.5 McFarland turbidity was successively diluted 1:50 in MHB to achieve a final concentration of 5 × 10^5 CFU/mL for inoculation. The antibiotic and adjuvant were serially diluted 2-fold along the x-axis and y-axis, respectively, resulting in varying concentrations of both agents in each well. Subsequently, the 96-well plate was incubated with equal volumes of bacterial inoculum at 37°C for 18 h. Confirmation of turbidity was done using an EMax Plus microplate reader (Molecular Devices, United States) at a wavelength of 590 nm. Wells comprising MHB alone or in the presence of bacterial cells were used as negative or positive controls, respectively. Fractional inhibitory concentration index (FICI) is determined by adding the FICs of both antibiotic and adjuvant. The FIC of the antibiotic is calculated by dividing the MIC of the antibiotic in the presence of the adjuvant by the MIC of the antibiotic alone. Similarly, the FIC of the adjuvant is calculated by dividing the MIC of the adjuvant in the presence of the antibiotic by the MIC of the adjuvant alone. FICI ≤ 0.5, 0.5 < x ≤ 4, and >4 were deemed synergistic, additive, and antagonistic, respectively ([Meletiadis et al., 2010]).

Structure (SMILES)	MIC ([1]; 259-96196, read-out: MIC) [µg/mL]	MIC ([1]; 262-101856, read-out: MIC) [µg/mL]	MIC ([1]; 264-104354, read-out: MIC) [µg/mL]	MIC ([1]; 91433, read-out: MIC) [µg/mL]	MIC ([2]; 92247, read-out: MIC) [µg/mL]	MIC ([2]; AB027, read-out: MIC) [µg/mL]	MIC ([2]; AB031, read-out: MIC) [µg/mL]	MIC ([2]; LAC-4, read-out: MIC) [µg/mL]	MIC [3]; 113250 [µg/mL]	MIC [3]; 113254 [µg/mL]	MIC [3]; 116381 [µg/mL]	MIC [4]; 117029 [µg/mL]	MIC [4]; 118564 [µg/mL]	MIC [4]; 121187 [µg/mL]	MIC ([5]; 94393 (mcr-1 +)) [µg/mL]	MIC ([5]; 94474 (mcr-1 +)) [µg/mL]	MIC [5]; 107115 [µg/mL]	MIC ([1]; 114228, read-out: MIC) [µg/mL]	further results
NCC[C@H](O)C(=O)N[C@@H]1C[C@H](N)[C@@H](O[C@H]2O[C@H](CN)[C@@H](O)[C@H](O)[C@H]2O)[C@H](O)[C@H]1O[C@H]1O[C@H](CO)[C@@H](O)[C@H](N)[C@H]1O [AMK, amikacin]	> 64	> 64	8 (≈ 13.7 µM)	> 32	< 1	> 64	2 (≈ 3.42 µM)	4 (≈ 6.83 µM)	≤ 1	≤ 1	≤ 1	2 (≈ 3.42 µM)	2 (≈ 3.42 µM)	1 (≈ 1.71 µM)	2 (≈ 3.42 µM)	2 (≈ 3.42 µM)	2 (≈ 3.42 µM)		
CN(C)c1cc(CNCC(C)(C)C)c(O)c2c1C[C@H]1C[C@H]3[C@H](N(C)C)C(O)=C(C(N)=O)C(=O)[C@@]3(O)C(O)=C1C2=O [OMC, omadacycline]	64 (≈ 115 µM)	64 (≈ 115 µM)	64 (≈ 115 µM)	128 (≈ 230 µM)		1 (≈ 1.8 µM)	2 (≈ 3.59 µM)	1 (≈ 1.8 µM)	2 (≈ 3.59 µM)	4 (≈ 7.19 µM)	4 (≈ 7.19 µM)	4 (≈ 7.19 µM)			4 (≈ 7.19 µM)	16 (≈ 28.7 µM)	4 (≈ 7.19 µM)	16 (≈ 28.7 µM)	
C[C@@H](O)[C@H]1C(=O)N2C(C(=O)O)=C(S[C@@H]3CN[C@H](C(=O)N(C)C)C3)[C@H](C)[C@H]12 [MER, meropenem]	1020 (≈ 2670 µM)	32 (≈ 83.4 µM)	64 (≈ 167 µM)	16 (≈ 41.7 µM)	4 (≈ 10.4 µM)	16 (≈ 41.7 µM)	1 (≈ 2.61 µM)	< 1	≤ 0.03	≤ 0.03	≤ 0.03	≤ 0.03	0.12 (≈ 0.313 µM)	0.06 (≈ 0.156 µM)	≤ 0.03	≤ 0.03	32 (≈ 83.4 µM)	8 (≈ 20.9 µM)	
CO/N=C(\C(=O)N[C@@H]1C(=O)N2C(C(=O)O)=C(COC(C)=O)CS[C@H]12)c1csc(N)n1 [CTX, cefotaxime]	2050 (≈ 4500 µM)	128 (≈ 281 µM)	2050 (≈ 4500 µM)				16 (≈ 35.1 µM)											128 (≈ 281 µM)	MIC [1]; 91433: 1020 µg/mL (≈ 2250 µM); MIC [2]: > 256 µg/mL
CO/N=C(\C(=O)N[C@@H]1C(=O)N2C(C(=O)[O-])=C(C[N+]3(C)CCCC3)CS[C@H]12)c1csc(N)n1 [CPM, cefepime]	> 64	32 (≈ 66.6 µM)	32 (≈ 66.6 µM)	16 (≈ 33.3 µM)	4 (≈ 8.32 µM)		4 (≈ 8.32 µM)		1 (≈ 2.08 µM)	1 (≈ 2.08 µM)	16 (≈ 33.3 µM)	≤ 0.25	0.25 (≈ 0.52 µM)	0.25 (≈ 0.52 µM)	≤ 0.25	≤ 0.25	> 64		
CO/N=C(\C(=O)N[C@@H]1C(=O)N2C(C(=O)O)=C(CSc3nc(=O)c(=O)[nH]n3C)CS[C@H]12)c1csc(N)n1 [CTR, ceftriaxone]	> 64	64 (≈ 115 µM)	> 64	> 64															
CN(C)[C@@H]1C(O)=C(C(N)=O)C(=O)[C@@]2(O)C(O)=C3C(=O)c4c(O)c(NC(=O)CN5CCCC5)cc(F)c4C[C@H]3C[C@@H]12 [ERC, eravacycline]	8 (≈ 14.3 µM)	8 (≈ 14.3 µM)	8 (≈ 14.3 µM)	16 (≈ 28.6 µM)		0.5 (≈ 0.895 µM)	0.25 (≈ 0.448 µM)	0.06 (≈ 0.107 µM)	1 (≈ 1.79 µM)	0.5 (≈ 0.895 µM)	0.5 (≈ 0.895 µM)	0.5 (≈ 0.895 µM)			0.5 (≈ 0.895 µM)	1 (≈ 1.79 µM)	0.125 (≈ 0.224 µM)	8 (≈ 14.3 µM)	
Cc1nnc(SCC2=C(C(=O)O)N3C(=O)[C@@H](NC(=O)Cn4cnnn4)[C@H]3SC2)s1 [CFZ, cefazolin]	> 128	> 128	> 128	> 128	128 (≈ 282 µM)	> 128	> 128		1 (≈ 2.2 µM)	1 (≈ 2.2 µM)	> 128	> 128	> 128	32 (≈ 70.4 µM)	1 (≈ 2.2 µM)	4 (≈ 8.8 µM)	> 128		
C[C@@H](O)[C@H]1C(=O)N2C(C(=O)O)=C(S[C@@H]3CN[C@H](CNS(N)(=O)=O)C3)[C@H](C)[C@H]12 [DOR, doripenem]	> 1020	16 (≈ 38 µM)	16 (≈ 38 µM)	16 (≈ 38 µM)														8 (≈ 19 µM)	
C[C@@H](O)[C@H]1C(=O)N2C(C(=O)O)=C(S[C@@H]3CN[C@H](C(=O)Nc4cccc(C(=O)O)c4)C3)[C@H](C)[C@H]12 [ETP, ertapenem]	> 32	> 32	> 32	> 32					≤ 0.03	≤ 0.03	0.12 (≈ 0.252 µM)	≤ 0.03			≤ 0.03	≤ 0.03	> 32		
O=C(O)c1cn(C2CC2)c2cc(N3CCNCC3)c(F)cc2c1=O [Ciprofloxacin]																			MICcombo ([6]; antibiotic with dUSTBβP 3 at 8 μg/mL): 0.002 µg/mL; MIC ([6]; Escherichia coli, ATCC25922, 18 h, antibiotic alone (Supplementary Table 7), read-out: MICantibiotic): 0.008 µg/mL
CO[C@@]1(NC(=O)Cc2cccs2)C(=O)N2C(C(=O)O)=C(COC(N)=O)CS[C@@H]21 [FOX, cefoxitin]	> 32	> 32	> 32	> 32	32 (≈ 74.9 µM)				1 (≈ 2.34 µM)	1 (≈ 2.34 µM)	16 (≈ 37.4 µM)	> 32	> 32	> 32	4 (≈ 9.36 µM)	16 (≈ 37.4 µM)	> 32		
C[C@@H](O)[C@H]1C(=O)N2C(C(=O)O)=C(SCCN=CN)C[C@H]12 [IMI, imipenem]	32 (≈ 107 µM)	32 (≈ 107 µM)	32 (≈ 107 µM)	32 (≈ 107 µM)		32 (≈ 107 µM)	0.25 (≈ 0.835 µM)	< 1	0.25 (≈ 0.835 µM)	0.12 (≈ 0.401 µM)	0.5 (≈ 1.67 µM)	0.25 (≈ 0.835 µM)			0.25 (≈ 0.835 µM)	0.25 (≈ 0.835 µM)	8 (≈ 26.7 µM)		

Source: publication PMC8733726, “Dioctanoyl Ultrashort Tetrabasic β-Peptides Sensitize Multidrug-Resistant Gram-Negative Bacteria to Novobiocin and Rifampicin” (Frontiers in Microbiology, 2021)
